Laboratory results as given in patent publication US7314939B2, “Compositions and methods for inhibiting TGF-β” (Millennium Pharmaceuticals, Inc., priority 2003, dated 2008).

Key:
ALK5 = biological target: T1, ALK5 (Homo sapiens, UniProt P36897); assay: TGF-β (ALK5) phosphorylation: GST-ALK5 autophosphorylation screen and in vitro kinase of HA-ALK5 (IC50); type: biochemical
T1 construct: An expression construct containing full-length ALK5 C-terminally tagged with HA was transfected into COS7 cells; made in house; host or cells: COS7 cells (transfected; isolated by anti-HA immunoprecipitation)
T1 sequence (P36897 34-503): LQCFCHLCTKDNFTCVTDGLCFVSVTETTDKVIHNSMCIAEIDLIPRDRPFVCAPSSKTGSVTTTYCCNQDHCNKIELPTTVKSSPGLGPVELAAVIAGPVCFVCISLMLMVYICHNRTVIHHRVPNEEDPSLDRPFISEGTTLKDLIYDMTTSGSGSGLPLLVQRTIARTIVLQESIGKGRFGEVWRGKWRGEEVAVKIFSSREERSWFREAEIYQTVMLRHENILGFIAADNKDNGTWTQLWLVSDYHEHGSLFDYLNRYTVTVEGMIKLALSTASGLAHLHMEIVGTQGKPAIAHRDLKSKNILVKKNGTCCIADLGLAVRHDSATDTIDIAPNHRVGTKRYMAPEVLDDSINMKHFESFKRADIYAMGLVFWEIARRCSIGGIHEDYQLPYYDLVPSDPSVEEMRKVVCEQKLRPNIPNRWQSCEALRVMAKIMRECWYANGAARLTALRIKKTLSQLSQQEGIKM
Description: The autophosphorylation of GST-ALK5 was developed for primary screening of the compounds that inhibit TGF-β signaling by interacting with ALK5. HA-ALK5 assay is a secondary screening assay to confirm the inhibitory compounds that were selected from the primary screening, and also for the determination of IC50 for each compound.
Autophosphorylation Assay of GST-ALK5
The cytoplasmic domain of ALK5 was fused to glutathione S-transferase (GST) and the GST-ALK5 fusion protein was expressed in a baculovirus expression system. GST-ALK5 was isolated with glutathione Sepharose 4B beads (Pharmacia Biotech, Sweden) and stored at −80° C. until use.
For detection of GST-ALK5 autophosphorylation and screening of inhibitory compounds, an aliquot of GST-ALK5 in 1× kinase buffer including [^33P]-γ-ATP was added to 96-well plates in the presence or absence of compounds. The mixture was then incubated at room temperature for 30 min and transferred to each well of a Filterplate with vacuum. The Filterplate was then washed 3 times and radioactivity in each well was counted in a Packard TopCount.
In Vitro Kinase of HA-ALK5
An expression construct containing full-length ALK5 C-terminally tagged with HA was transfected into COS7 cells, and HA-ALK5 was isolated by immunoprecipitation with anti-HA antibodies. Aliquots of immunoprecipitated HA-ALK5 in 1× kinase buffer plus [^33P]-γ-ATP was added to 96-well plates in the presence or absence of different concentrations of testing compounds, and incubated at room temperature for 60 min. The reaction mixture was then transferred to a Filterplate. The plate was washed three times and radioactivity in each well counted. IC50 for each compound was determined using the Prism3 program.

[1] = system: TGF-β stimulated normal human lung fibroblasts (NHLF); assay: Cell-based assays in TGF-β stimulated NHLF (P-Smad2, PAI-1, collagen, fibronectin); settings: Fibroblast, P-Smad2, PAI-1, collagen and fibronectin assays
Protocol: ELISA Assay for TGF-β Stimulated Smad2 Phosphorylation
Serum-starved normal human lung fibroblasts (NHLF) in 24-well plate were treated with or without different concentrations of testing compounds for 30 min. The cells were then stimulated with TGF-β for one hour. After fixing, permeabilizing, and blocking, the cells were incubated with phospho-Smad2 specific antibodies followed by HRP-conjugated secondary antibody. The extent of Smad2 phosphorylation was then detected using HRP substrate and read with an ELISA plate reader. IC50 for each testing compound was determined using the PRISM3 program.
ELISA Assay for TGF-β Stimulated PAI-1 Secretion
Serum-starved NHLF in 24-well plates were treated with or without different concentrations of testing compounds for 30 min. The cells were then stimulated with TGF-β and incubated in a 37° C. incubator for 24 hours. The media were collected and added to 96-well plates coated with anti-PAI-1 antibodies. The secreted PAI-1 was then detected with another PAI-1 specific antibody followed by HRP-conjugated secondary antibody. The secretion of PAI-1 was detected using HRP substrate and read with an ELISA plate reader. IC50 for each testing compound was determined using the PRISM3 program.
SIRCOL Collagen Assay for TGF-β Stimulated Cells
Serum-starved NHLF in 24-well plates were treated with or without different concentrations of testing compounds for 30 min. The cells were then stimulated with TGF-β and incubated for 24 hours. The media were collected and SIRCOL dye reagent was added. After spinning and washing, the pellets were resuspended in alkali reagent and read with an ELISA plate reader. IC50 for each testing compound was determined using the PRISM3 program.
Detection of TGF-β Stimulated Fibronectin Expression
Serum-starved NHLF in 24-well plates were treated with or without different concentrations of testing compounds for 30 min. The cells were then stimulated with TGF-β and incubated for 24 hours. […] The signal was then detected using an ELISA reader. IC50 for each testing compound was determined using the PRISM3 program. […]

SMILES | IC50 (ALK5) [µM] | IC50 [1] [µM]
Fc1c(-c2cccc(Cl)c2)nc2ccccc2c1Nc1ccncc1 [Compound 7, [2-(3-Chloro-phenyl)-3-fluoro-quinolin-4-yl]-pyridin-4-yl-amine] | < 10 | < 10
Fc1c(-c2ccc(Cl)s2)nc2ccccc2c1Nc1ccncc1 [Compound 51, [2-(5-Chloro-thiophen-2-yl)-3-fluoro-quinolin-4-yl]-pyridin-4-yl-amine] | < 10 | < 10
Cc1ccc(-c2nc3ccccc3c(Nc3ccncc3)c2F)o1 [Compound 55, [3-Fluoro-2-(5-methyl-furan-2-yl)-quinolin-4-yl]-pyridin-4-yl-amine] | < 10 | < 10
